# Patent US20230085307A1, “PYRIDAZINONE COMPOUND AND HERBICIDE” (NISSAN CHEMICAL CORPORATION, priority 2019, published 2023)
# System: late watergrass
# Assay: Test Example 2: herbicidal activity, application during weed generation under submerged conditions (Table 17, symbol A)
# Format: in vivo, late watergrass (Echinochloa oryzicola)
# Conditions: AAH 320 g/ha; application during weed generation, submerged conditions
# Procedure, shortened: (§1)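 Wagner pot, alluvial soil, 4 cm flood; mixed sowing of all species; greenhouse 25° C.–30° C. Emulsifiable formulation, water-diluted to predetermined dose, applied to paddy water at 1–2 leaf stage. Effect rated at 3 wk using the earlier test's scoring criteria.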
row,SMILES,"herbicidal effect rating, A: late watergrass"
1,CCCC(=O)Oc1c(C)nn(C)c(=O)c1-c1c(-c2ccc([N+](=O)[O-])cc2)sc2ccccc12 [1-152],3 (Herbicidal rate of 40% or more and less than 70%)

# System: redroot pigweed
# Assay: Test Example 4: herbicidal effect by soil treatment (Table 19, symbol N)
# Format: in vivo, redroot pigweed (Amaranthus retroflexus)
# Conditions: AAH 320 g/ha
# Procedure, shortened: (§2)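 Applied as a water-diluted emulsion, the compound was sprayed onto soil covering newly sown seeds. Evaluation came three weeks after application, in a greenhouse held at 25° C. to 30° C.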
row,SMILES,"N: redroot pigweed, herbicidal effect rating"
1,CCCC(=O)Oc1c(C)nn(C)c(=O)c1-c1c(-c2ccc([N+](=O)[O-])cc2)sc2ccccc12 [1-152],3 (Herbicidal rate of 40% or more and less than 70%)

# System: blackgrass
# Assay: Test Example 5: herbicidal effect by foliage application, plastic box (Table 20, symbol J)
# Format: in vivo, blackgrass (Alopecurus myosuroides)
# Conditions: foliage application, AAH 320 g/ha, three weeks after application
# Procedure, shortened: (§3)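 Sow seeds spot-wise in sterilized diluvial soil; cover with ~1.5 cm soil. Grow 14 days in greenhouse, 25° C. to 30° C. Spray foliage with emulsion diluted to predetermined amount. Rate effect after 3 weeks.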
row,SMILES,"J: blackgrass, herbicidal effect"
1,CCCC(=O)Oc1c(C)nn(C)c(=O)c1-c1c(-c2ccc([N+](=O)[O-])cc2)sc2ccccc12 [1-152],0 (Herbicidal rate of 5% or less (almost no effect))

# System: Japanese bulrush
# Assay: Test Example 1: herbicidal activity, application before weed generation under submerged conditions (Table 16, symbol B)
# Format: in vivo, Japanese bulrush (Schoenoplectus juncoides)
# Conditions: 320 g/ha applied herbicide
# Procedure, shortened: (§4)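 Emulsion formulation, water-diluted to set dose, was put onto the flooded surface (4 cm depth, alluvial soil) the same day weeds were sown and 2.5-leaf rice transplanted. After 3 weeks at 25-30 °C under glass, each species was rated 0 (≤5% kill) to 5 (≥90% kill).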
row,SMILES,Herbicidal effect on B: Japanese bulrush (grade 0-5)
1,CCCC(=O)Oc1c(C)nn(C)c(=O)c1-c1c(-c2ccc([N+](=O)[O-])cc2)sc2ccccc12 [1-152],3 (Herbicidal rate of 40% or more and less than 70%)

# System: wild oat
# Assay: Test Example 5: herbicidal effect by foliage application, plastic box (Table 20, symbol I)
# Format: in vivo, wild oat (Avena fatua)
# Conditions: foliage application, AAH 320 g/ha, three weeks after application
# Procedure, shortened: as §3
row,SMILES,"I: wild oat, herbicidal effect"
1,CCCC(=O)Oc1c(C)nn(C)c(=O)c1-c1c(-c2ccc([N+](=O)[O-])cc2)sc2ccccc12 [1-152],0 (Herbicidal rate of 5% or less (almost no effect))

# System: rice flat sedge
# Assay: Test Example 3: herbicidal effect by foliage application, Wagner pot (Table 18, symbol E)
# Format: in vivo, rice flat sedge (Cyperus iria)
# Conditions: 320 g/ha
# Procedure, shortened: (§5)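 Plants were sown in alluvial soil held under 0.1–0.5 cm standing water and grown 14 days in a greenhouse at 25–30 °C. An emulsifiable formulation, water-diluted to the set dose, was then sprayed onto the foliage, and effects were scored three weeks later using previously defined criteria.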
row,SMILES,"herbicidal effect on E (rice flat sedge), rating 0-5"
1,CCCC(=O)Oc1c(C)nn(C)c(=O)c1-c1c(-c2ccc([N+](=O)[O-])cc2)sc2ccccc12 [1-152],3 (Herbicidal rate of 40% or more and less than 70%)

# System: Chinese sprangletop
# Assay: Test Example 3: herbicidal effect by foliage application, Wagner pot (Table 18, symbol D)
# Format: in vivo, chinese sprangletop (Leptochloa chinensis)
# Conditions: 320 g/ha
# Procedure, shortened: as §5
row,SMILES,"herbicidal effect on D (Chinese sprangletop), rating 0-5"
1,CCCC(=O)Oc1c(C)nn(C)c(=O)c1-c1c(-c2ccc([N+](=O)[O-])cc2)sc2ccccc12 [1-152],5 (Herbicidal rate of 90% or more (almost completely withered))

# System: redroot pigweed
# Assay: Test Example 5: herbicidal effect by foliage application, plastic box (Table 20, symbol N)
# Format: in vivo, redroot pigweed (Amaranthus retroflexus)
# Conditions: foliage application, AAH 320 g/ha, three weeks after application
# Procedure, shortened: as §3
row,SMILES,"N: redroot pigweed, herbicidal effect"
1,CCCC(=O)Oc1c(C)nn(C)c(=O)c1-c1c(-c2ccc([N+](=O)[O-])cc2)sc2ccccc12 [1-152],5 (Herbicidal rate of 90% or more (almost completely withered))

# System: Italian ryegrass
# Assay: Test Example 5: herbicidal effect by foliage application, plastic box (Table 20, symbol K)
# Format: in vivo, Italian ryegrass (Lolium multiflorum)
# Conditions: foliage application, AAH 320 g/ha, three weeks after application
# Procedure, shortened: as §3
row,SMILES,"K: Italian ryegrass, herbicidal effect"
1,CCCC(=O)Oc1c(C)nn(C)c(=O)c1-c1c(-c2ccc([N+](=O)[O-])cc2)sc2ccccc12 [1-152],4 (Herbicidal rate of 70% or more and less than 90%)

# System: Italian ryegrass
# Assay: Test Example 4: herbicidal effect by soil treatment (Table 19, symbol K)
# Format: in vivo, Italian ryegrass (Lolium multiflorum)
# Conditions: AAH 320 g/ha
# Procedure, shortened: as §2
row,SMILES,"K: Italian ryegrass, herbicidal effect rating"
1,CCCC(=O)Oc1c(C)nn(C)c(=O)c1-c1c(-c2ccc([N+](=O)[O-])cc2)sc2ccccc12 [1-152],0 (Herbicidal rate of 5% or less (almost no effect))

# System: windgrass
# Assay: Test Example 4: herbicidal effect by soil treatment (Table 19, symbol L)
# Format: in vivo, windgrass (Apera spica-venti)
# Conditions: AAH 320 g/ha
# Procedure, shortened: as §2
row,SMILES,"L: windgrass, herbicidal effect rating"
1,CCCC(=O)Oc1c(C)nn(C)c(=O)c1-c1c(-c2ccc([N+](=O)[O-])cc2)sc2ccccc12 [1-152],0 (Herbicidal rate of 5% or less (almost no effect))

# System: barnyard grass
# Assay: Test Example 5: herbicidal effect by foliage application, plastic box (Table 20, symbol H)
# Format: in vivo, barnyard grass (Echinochloa crus-galli)
# Conditions: foliage application, AAH 320 g/ha, three weeks after application
# Procedure, shortened: as §3
row,SMILES,"H: barnyard grass, herbicidal effect"
1,CCCC(=O)Oc1c(C)nn(C)c(=O)c1-c1c(-c2ccc([N+](=O)[O-])cc2)sc2ccccc12 [1-152],4 (Herbicidal rate of 70% or more and less than 90%)

# System: barnyard grass
# Assay: Test Example 3: herbicidal effect by foliage application, Wagner pot (Table 18, symbol H)
# Format: in vivo, barnyard grass (Echinochloa crus-galli)
# Conditions: 320 g/ha
# Procedure, shortened: as §5
row,SMILES,"herbicidal effect on H (barnyard grass), rating 0-5"
1,CCCC(=O)Oc1c(C)nn(C)c(=O)c1-c1c(-c2ccc([N+](=O)[O-])cc2)sc2ccccc12 [1-152],5 (Herbicidal rate of 90% or more (almost completely withered))

# System: late watergrass
# Assay: Test Example 1: herbicidal activity, application before weed generation under submerged conditions (Table 16, symbol A)
# Format: in vivo, late watergrass (Echinochloa oryzicola)
# Conditions: 320 g/ha applied herbicide
# Procedure, shortened: as §4
row,SMILES,Herbicidal effect on A: late watergrass (grade 0-5)
1,CCCC(=O)Oc1c(C)nn(C)c(=O)c1-c1c(-c2ccc([N+](=O)[O-])cc2)sc2ccccc12 [1-152],4 (Herbicidal rate of 70% or more and less than 90%)

# System: green foxtail
# Assay: Test Example 5: herbicidal effect by foliage application, plastic box (Table 20, symbol G)
# Format: in vivo, green foxtail (Setaria viridis)
# Conditions: foliage application, AAH 320 g/ha, three weeks after application
# Procedure, shortened: as §3
row,SMILES,"G: green foxtail, herbicidal effect"
1,CCCC(=O)Oc1c(C)nn(C)c(=O)c1-c1c(-c2ccc([N+](=O)[O-])cc2)sc2ccccc12 [1-152],5 (Herbicidal rate of 90% or more (almost completely withered))

# System: oval-leafed pondweed
# Assay: Test Example 2: herbicidal activity, application during weed generation under submerged conditions (Table 17, symbol C)
# Format: in vivo, oval-leafed pondweed (Monochoria vaginalis)
# Conditions: AAH 320 g/ha; application during weed generation, submerged conditions
# Procedure, shortened: as §1
row,SMILES,"herbicidal effect rating, C: oval-leafed pondweed"
1,CCCC(=O)Oc1c(C)nn(C)c(=O)c1-c1c(-c2ccc([N+](=O)[O-])cc2)sc2ccccc12 [1-152],0 (Herbicidal rate of 5% or less (almost no effect))
